Data published in PubChem BioAssay AID463074 (Broad Institute, 2010).
Calls of active or inactive are those of the source.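 The calls were made as follows: active = AC50 no more than tenfold above the top dose tested, or full inhibition at every dose with a flat fit (cut at about 19 µM in these data); inconclusive = flat curve fit with inhibition between 30% and 70%, or poor fit; inactive = AC50 more than tenfold above the top dose tested.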

Test system: HMLE_sh_eGFP viability, CellTiter-Glo luminescence, 72 h
Experiment: cytotoxicity in HMLE control line with eGFP shRNA, dose response, counter-screen for HMLE_sh_ECad selective toxicity project, cell-based, HMLE_sh_eGFP, luminescence (AID 463074);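 also: counterscreen control line to flag general toxicity for the HMLE_sh_ECad screen; potency for loss of viability as luminescence drops below DMSO wells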

Row | SMILES | AC50
1 | O=C(CN(c1ccc(Cl)cc1)S(=O)(=O)c1ccc(Cl)c([N+](=O)[O-])c1)NCCc1ccc(F)cc1 | 3.81 µM
2 | CC(C)c1cccc(C(C)C)c1OC(=O)[C@H]1OC(c2ccc(Br)cc2)=C[C@@H]1c1ccc(Br)cc1 | 4.64 µM
3 | CCC(C)NCCOc1ccc(C(C)(C)c2ccccc2)cc1 (stereo not drawn) | 5.92 µM
4 | O=C(NC(=O)N1CCN(c2cccc(Cl)c2)CC1)c1ccc(Cl)cc1 | 0.573 µM
5 | CCCCNc1c(-c2ccc(SC3CCCCC3)c(OC)c2)nc2ccc(C)cn12 | 3.49 µM
6 | Cc1ccc(-c2cc(C(=O)N3CCN(c4ccc(O)cc4)CC3)c3ccccc3n2)cc1 | 8.38 µM
7 | CC(=O)c1ccc(NC(=O)COC(=O)c2c3c(nc4ccccc24)/C(=C\c2cccs2)CCC3)cc1 | 4.54 µM
8 | O=C(Nc1cccc(Cl)c1)Nc1cc(S(=O)(=O)N2CCCCC2)ccc1Cl | 2.82 µM
9 | COc1ccc(Cc2nnc(N/N=C/c3ccc(O)cc3O)[nH]c2=O)cc1OC | 8.14 µM
10 | COc1ccc(C(CCNCc2ccc(OC(C)C)cc2)c2ccccc2OC)cc1 (stereo not drawn) | 4.66 µM
11 | COc1ccc(/C=C2\C(=O)c3ccccc3OC2c2ccccc2)cc1 (stereo not drawn) | 1.38 µM
12 | Cc1ccc(NS(=O)(=O)c2ccc(Cl)c(NC(=S)NC(=O)C3CCCCC3)c2)cc1Cl | 3.58 µM
13 | CCOC(=O)c1c(NC(=O)C2COc3ccccc3O2)sc2c1CC(C)(C)NC2(C)C (stereo not drawn) | 9.86 µM
14 | CC1CC/C(=C\c2ccc3c(c2)OCO3)C(=O)/C1=C/c1ccc2c(c1)OCO2 (stereo not drawn) | 5.09 µM
15 | CC1CCCN(c2ccc(C(=O)N3CCC4(CC3)OCCO4)cc2[N+](=O)[O-])C1 (stereo not drawn) | 7.96 µM
16 | O=C(CSCc1cccc(Br)c1)N/N=C/c1ccc2c(c1)OCO2 | 5.34 µM
17 | C=C1C(=O)C=C[C@]2(C)C[C@@H]3OC(=O)[C@](C)(O)[C@H]3C[C@@H]12 | 9.76 µM
18 | Cc1cccc(C)c1NS(=O)(=O)c1ccc(NC(=O)c2ccc(Cl)c([N+](=O)[O-])c2)cc1 | 3.66 µM
19 | CCOC(=O)c1ccc(NC(=O)c2nc[nH]c2C(=O)NCCCCNC(=O)c2[nH]cnc2C(=O)Nc2ccc(C(=O)OCC)cc2)cc1 | 3.99 µM
20 | N=c1c2c(ncn1Cc1ccco1)Oc1ccc3ccccc3c1C2c1ccccc1 (stereo not drawn) | 4.5 µM
21 | CN1CCN(c2ccccc2NC(=O)c2ccc(-c3ccc(Cl)c(Cl)c3)o2)CC1 | 6.68 µM
22 | O=C(N/N=C/c1ccc(Cl)c([N+](=O)[O-])c1)c1cc(-c2ccccc2)nc2ccccc12 | 4.52 µM
23 | CN(C)CCOc1ccc(-c2c(-c3ccccc3)sc3ccccc23)cc1 | 2.53 µM
24 | Cc1cccc2sc(NC(=O)C3c4ccccc4Oc4ccccc43)nc12 | 5.71 µM
25 | CCCCN(CC)S(=O)(=O)c1ccc(C(=O)N(CCCN(C)C)c2nc3cc(C)cc(C)c3s2)cc1 | 7.21 µM
26 | COc1cccc(/C=C/C(=C2/C(=O)N(c3ccccc3)N=C2C)c2ccc(Br)cc2)c1OC | > 19.5 µM (inactive)

Row | SMILES | AC50
27 | Oc1cccc(C(O)CNCc2ccc(OCc3ccc(Cl)cc3Cl)cc2)c1 (stereo not drawn) | 7.09 µM
28 | CC(C)OC(=O)c1c2c(n3ccccc13)C(=O)c1ccccc1C2=O | > 19.5 µM (inactive)
29 | CC(C)c1ccc(N2C(=O)NC(=O)/C(=C\C=C\c3ccco3)C2=O)cc1 | > 19.5 µM (inactive)
30 | O=C(CSc1nc(-c2ccccc2)cc(C(F)(F)F)n1)c1cccc([N+](=O)[O-])c1 | 20.4 µM
31 | CC1CC1C(=O)N1CCN(S(=O)(=O)c2cc(C(F)(F)F)cc(C(F)(F)F)c2)CC1 (stereo not drawn) | 6.27 µM
32 | Cc1cc(C)nc(NC(=NCCc2c[nH]c3ccccc23)NC(=O)Nc2ccc(Cl)cc2)n1 | > 19.5 µM (inactive)
33 | Cc1ccc(C(C[N+](=O)[O-])n2nc(C)cc2C)cc1 (stereo not drawn) | 6.74 µM
34 | Cc1cccc(OCc2n(CC(=O)OC3CC(C)CCC3C(C)C)c3ccccc3[n+]2C)c1 (stereo not drawn) | 3.47 µM
35 | CNC(C)C(=O)NC(C(=O)N1CCCC1C(=O)NNc1ccccc1)C(C)C (stereo not drawn) | 6.41 µM
36 | Cc1cc(NCc2ccccn2)n2nc(C)c(-c3ccc(Cl)cc3)c2n1 | 5.92 µM
37 | CC(NC(=O)c1ccc(N2CCNCC2)c([N+](=O)[O-])c1)C12CC3CC(CC(C3)C1)C2 (stereo not drawn) | 6.64 µM
38 | Oc1cccc(/C=C/c2ccc3cccc(O)c3n2)c1 | 4.83 µM
39 | O=C(c1ccc(C#CC2(O)CCCCC2)cc1)N1CCN(C(c2ccccc2)c2ccccc2)CC1 | 2.52 µM
40 | O=C(c1cc(-c2cccc(O)c2)on1)N1CCN(C(c2ccccc2)c2ccccc2)CC1 | 3.11 µM
41 | O=C1/C(=C\c2cccc(O)c2O)SC(=S)N1Cc1ccccc1 | 4.85 µM
42 | CC(C)C[C@H](NC(=O)c1nc[nH]c1C(=O)NC(c1ccccc1)c1ccccc1)C(=O)OC(C)(C)C | 3.67 µM
43 | Oc1ccc(-c2csc(Nc3ccccn3)n2)c(O)c1 | 3.93 µM
44 | CC(C)(C)c1ccc(C(=O)NC(=S)Nc2nc3c(s2)CCCC3)cc1 | 2.18 µM
45 | Cc1oc2c(c1C(=O)N1CCC(C)CC1)C(=O)c1ccccc1C2=O | 7.99 µM
46 | CN(/N=C/c1cc(Br)cc(Br)c1O)c1cccc(C(F)(F)F)n1 | 12.7 µM
47 | C=C1CCN([C@@H](CC(C)C)C(=O)Nc2nc3ccc(Cl)cc3s2)S(=O)(=O)c2ccccc21 | 14.5 µM
48 | O=C(NNC1=C(C(=O)C(F)(F)F)CCC1)c1cccc(Cl)c1 | 3.64 µM
49 | O=c1c(Cl)c(NCc2ccccc2)cnn1C12CC3CC(CC(C3)C1)C2 | 3.19 µM
50 | O=C(NC(=S)NCCc1ccccc1)C1CCCCC1 | 18.4 µM
51 | COc1ccc(-c2nn(-c3ccccc3)cc2/C=C2/SC(=S)N(CCC(=O)O)C2=O)c(C)c1 | 8.18 µM
52 | CC(C)(Oc1ccc(Cl)cc1)C(=O)NC1=NN(c2ccccc2)C(=O)C1 | 6.11 µM

Row | SMILES | AC50
53 | COc1ccc(Cn2nnnc2C(C(C)C)N(Cc2ccco2)Cc2cccs2)cc1 (stereo not drawn) | > 19.5 µM (inactive)
54 | O=c1oc2ccccc2c(O)c1Cc1cc(Cl)c2cccnc2c1O | 4.9 µM
55 | O=C(CN(c1cccc(C(F)(F)F)c1)S(=O)(=O)c1ccc(Cl)c([N+](=O)[O-])c1)NCc1ccc(F)cc1 | 3.26 µM
56 | O/N=C/c1cc(Cl)ccc1OCc1ccccc1Cl | 6.08 µM
57 | Cc1cc([N+](=O)[O-])nn1CC(=O)N/N=C/c1ccc(O)cc1O | 5.4 µM
58 | CCc1ccc(-c2cc(C(=O)N3N=C(C(F)F)CC3(O)C(F)F)c3ccccc3n2)cc1 (stereo not drawn) | 6.4 µM
59 | c1cc2cc(-c3c(-c4ccc5c(c4)OCO5)noc3-c3ccsc3)ccc2[nH]1 | 4.19 µM
60 | Oc1ccc(N=Nc2ccc(Br)cc2)c(O)c1 | 17.3 µM
61 | OC1CCN(c2cc(-c3ccccc3)nc3cc(-c4ccc(F)cc4)nn23)CC1 | 7.31 µM
62 | CC(C)=CCc1c(O)ccc(C(=O)Cc2ccccc2)c1O | 4.41 µM
63 | O=c1cc(N2CCCCC2)c(-c2ccccc2)nn1Cc1c(Cl)cccc1Cl | 5.72 µM
64 | Cc1cc(C)c(C(CC(=O)c2cccs2)C(C#N)C#N)c(C)c1 (stereo not drawn) | 5.9 µM
65 | CCOc1cc(S(=O)(=O)Nc2ccc(CC)cc2)ccc1Cl | 7.02 µM
66 | CC/C(=N\Nc1ccccc1)c1c(O)n(-c2ccccc2)c(=O)[nH]c1=O | 2.16 µM
67 | CCCCCCCCCc1nc2sc3c(c2c(=O)n1NC(=O)c1ccccc1[N+](=O)[O-])CC(C)(C)OC3 | 1.21 µM
68 | Cc1ccc2sc(N(CCCN(C)C)C(=O)c3ccc(S(=O)(=O)N4CCCCCC4)cc3)nc2c1C | 7.04 µM
69 | C=CCn1c(CNc2ccccc2)nnc1SCC(=O)N/N=C/c1ccc(O)cc1O | 3.23 µM
70 | O=C(Nc1ccc(-c2csc(Nc3cccc(C(F)(F)F)c3)n2)cc1)c1cc([N+](=O)[O-])cc(C(F)(F)F)c1 | 1.93 µM
71 | O=C(/C=C/c1c[nH]c2ccccc12)c1cccc2ccccc12 | 5.3 µM
72 | COc1cc(-c2noc(C)c2/C=C/c2ccc(OC(C)=O)cc2)cc(OC)c1OC | 0.292 µM
73 | CCCCCCOc1ccc(OC(=O)c2cccnc2)cc1 | 10.1 µM
74 | COc1cc(CNC(C)(C)CO)cc(Br)c1OCc1ccc(Cl)cc1Cl | 6.07 µM
75 | COc1ccc(/C=C(\C#N)c2c[nH]c3ccccc23)cc1 | 0.577 µM
76 | COC(=O)c1ccc(/C=C/c2c(-c3ccsc3)oc3ccc(N4CCOCC4)cc23)cc1 | 6.37 µM
77 | O=C(N/N=C\c1cc(Br)ccc1O)c1ccc(S(=O)(=O)N2CCCCC2)cc1 | 2.75 µM
78 | Cc1ccccc1NCc1ccc([N+](=O)[O-])s1 | 10.6 µM

Row | SMILES | AC50
79 | O=c1c2ccccc2nc(/C=C/c2ccccc2F)n1-c1ccccc1O | 6.44 µM
80 | CCCc1cc(-c2nc(-c3ccc(Cl)cc3)cs2)ccn1 | 13 µM
81 | O=S(=O)(N/N=C1/CC(c2ccccc2)Oc2ccccc21)c1ccc(Br)cc1 (stereo not drawn) | 4.21 µM
82 | CCc1ccc2[nH]c3nc(N/N=C/c4cccc(O)c4)nnc3c2c1 | < 0.16 µM
83 | O=C(CNC(=O)C(c1ccccc1)c1ccccc1)N/N=C/c1ccc(O)cc1O | 1.88 µM
84 | COc1ccc(N/N=C/c2c(O)n(-c3ccc(C)c(C)c3)c(=O)[nH]c2=O)cc1 | 1.12 µM
85 | O=[N+]([O-])c1ccc(S(=O)(=O)CC(CN2CCCCC2)N2CCCCC2)cc1 (stereo not drawn) | 5.37 µM
86 | COc1cc(OC)cc(-c2nnc(SCC(=O)N(Cc3ccccc3)C(C)(C)C)o2)c1 | 2.74 µM
87 | Cc1cc(C)cc(-n2c(C)cc(/C=C3\C(=N)N4N=C(CC(C)C)SC4=NC3=O)c2C)c1 | 4.82 µM
88 | CN(C)c1ccc(-c2cc(O)c3ncccc3c2)cc1 | 12.8 µM
89 | FC(F)(F)c1ccc(-c2noc(CN3CCCN(C4CCCCC4)CC3)n2)cc1 | 7.39 µM
90 | COc1ccc(/C=C/C(=O)c2ccc([N+](=O)[O-])o2)cc1OC | 2.47 µM
91 | CC/C(=N/NC(=O)c1ccccc1O)c1c(C)[nH]n(-c2ccccc2)c1=O | 5.25 µM
92 | CC1=NOC(=O)/C1=C\c1ccc(-c2cc(Cl)ccc2Cl)o1 | 1.06 µM
93 | CCOc1ccc(/C=C/C(O)=C2/C(=O)N(C)C3(C)CC2c2ccccc2O3)cc1OC (stereo not drawn) | 5.95 µM
94 | O=C(Cn1c2ccccc2c(=O)c2ccccc21)N/N=C/c1ccc(N2CCCC2)c([N+](=O)[O-])c1 | 2.43 µM
95 | O=C(NCCCN1CCOCC1)c1ccc(CSc2ccc(Cl)cc2)cc1 | 7.77 µM
96 | COc1ccc(CC2S/C(=N/N=C/c3ccccc3O)NC2=O)cc1 (stereo not drawn) | 19.2 µM
97 | CCCCSc1nc(C)cc(SCC(=O)N/N=C/c2cccc(OC)c2O)n1 | 11.8 µM
98 | Cc1ccc(S(=O)(=O)c2c(C)nn(C(C)(C)C)c2OC(=O)c2ccc(Br)o2)cc1 | 2.64 µM
99 | Oc1ccc(N=Nc2nc(-c3ccccc3)c(-c3ccccc3)[nH]2)cc1 | 4.53 µM
100 | Cc1ccsc1/C=C/c1ccc2cccc(O)c2n1 | 17 µM
101 | COc1ccc2sc(-c3ccccc3OC)c(-c3ccc(O)cc3)c2c1 | 6.71 µM
102 | O=C(NC(=S)Nc1cccc(Cl)c1N1CCCCC1)c1ccc2c(c1)OCCO2 | 1.52 µM
103 | O=C1/C(=C/c2ccncc2)Oc2cc(OS(=O)(=O)c3ccccc3)ccc21 | 4.81 µM
